Some test systems named below: A498 renal; ACHN renal; COLO 205 colon; HOP-62 NSCLC; LOX IMVI melanoma; OVCAR-5 ovarian; SF-295 CNS; SK-MEL-2 melanoma; SK-OV-3 ovarian; SN12C renal.
Assay in all cases: inhibition of tumour cell growth, NCI panel, 48 h

SMILES strings stand for the structures. Several values for one entry are separate records, joined by “and”; a condition that tells them apart may be missing. Equal values may be shown once.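 Following 48 hours of exposure in 96-well plates, responses at five concentrations were used to interpolate endpoints linearly. Abbreviation: GI50, concentration required for 50% inhibition of growth. The concentration for full growth arrest is given as TGI.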 Bounds are passed on as bounds.

The values that follow come from PubChem BioAssay (NCI).

`COc1ccc2c(c1)C=C1CSCC3=Cc4cc(OC)ccc4OC13O2`: the GI50 in the test with A498 renal is 0.23 µM; in the test on ACHN renal, 0.863 µM; with COLO 205 colon it was 0.292 µM; with HOP-62 NSCLC, 0.407 µM; with LOX IMVI melanoma, 0.656 µM; in the test on OVCAR-5 ovarian it was 0.757 µM. In addition, the GI50 in the test with SF-295 CNS was 0.316 µM; with SK-MEL-2 melanoma it was 0.625 µM; in the test on SK-OV-3 ovarian, 0.671 µM; with SN12C renal, 0.723 µM. The TGI in the test on A498 renal is 0.766 µM; with ACHN renal it was greater than 100 µM; with COLO 205 colon, 0.917 µM; in the test with HOP-62 NSCLC, greater than 100 µM; in the test with LOX IMVI melanoma it was greater than 100 µM; in the test with OVCAR-5 ovarian, greater than 100 µM. Besides, the TGI in the test on SF-295 CNS, in the test with SK-MEL-2 melanoma, in the test on SK-OV-3 ovarian and in the test on SN12C renal was greater than 100 µM each time.

With `NCCSC(C[N+](=O)[O-])c1ccccc1Cl` (stereo not given), the GI50 in the test on A498 renal is 2.3 µM; with ACHN renal, 9.85 µM; in the test on COLO 205 colon, 2.14 µM; in the test on HOP-62 NSCLC, 8.09 µM; with LOX IMVI melanoma, 1.69 µM; with OVCAR-5 ovarian it was 4.66 µM. Further, the GI50 in the test with SF-295 CNS was 1.5 µM; in the test on SK-MEL-2 melanoma, 21.9 µM; with SK-OV-3 ovarian it was 11.7 µM; with SN12C renal, 7.33 µM. The TGI worked out at 4.69 µM in the test with A498 renal; 22.1 µM with ACHN renal; 4.35 µM with COLO 205 colon; 23.1 µM in the test on HOP-62 NSCLC; 3.56 µM in the test with LOX IMVI melanoma; 10.4 µM with OVCAR-5 ovarian. For the same compound, the TGI came to 3.83 µM in the test on SF-295 CNS, 51.5 µM in the test with SK-MEL-2 melanoma, 24 µM in the test on SK-OV-3 ovarian and 21.9 µM with SN12C renal.

Take `Nc1ccc(C2=Nc3ccccc3SC(c3ccccc3O)C2)cc1` (stereo not given): the TGI is 74.1 µM in the test on A498 renal; greater than 100 µM in the test on ACHN renal; greater than 100 µM with COLO 205 colon; greater than 100 µM in the test with HOP-62 NSCLC; greater than 100 µM in the test with LOX IMVI melanoma; greater than 100 µM in the test on OVCAR-5 ovarian. Further, the TGI in the test with SF-295 CNS, in the test on SK-MEL-2 melanoma, in the test with SK-OV-3 ovarian and in the test with SN12C renal was greater than 100 µM throughout.

Take `COC1OC(C(C)O)C2OC(C)(C)OC12` (stereo not given): the TGI with A498 renal, with ACHN renal, in the test with COLO 205 colon, in the test with HOP-62 NSCLC, in the test on LOX IMVI melanoma and in the test on OVCAR-5 ovarian was greater than 100 µM throughout. For the same compound, the TGI in the test on SF-295 CNS, with SK-MEL-2 melanoma, in the test on SK-OV-3 ovarian and with SN12C renal was greater than 100 µM in each case.

Turning to `Nc1ccccc1C#C/C=C\C#Cc1ccccc1F`, the GI50 in the test on A498 renal was 7.66 µM; in the test on ACHN renal, 13.5 µM; in the test with COLO 205 colon, 10.3 µM; in the test with HOP-62 NSCLC it was 6.66 µM; with LOX IMVI melanoma, 4.07 µM; with OVCAR-5 ovarian, 9.31 µM. The GI50 in the test on SF-295 CNS was 3.9 µM; in the test with SK-MEL-2 melanoma, 17.3 µM; in the test on SK-OV-3 ovarian it was 16.7 µM; in the test on SN12C renal it was 7.37 µM. Besides, the TGI in the test with A498 renal was 21 µM; in the test on ACHN renal, 40 µM; in the test with COLO 205 colon, 34.1 µM; in the test with HOP-62 NSCLC it was 20.8 µM; in the test with LOX IMVI melanoma it was 14.2 µM; in the test with OVCAR-5 ovarian, 23.9 µM. Further, the TGI in the test on SF-295 CNS was 16.6 µM; in the test with SK-MEL-2 melanoma, 47.3 µM; in the test with SK-OV-3 ovarian, 46 µM; in the test on SN12C renal it was 20.9 µM.

For the compound `Oc1ccc(Cn2c(-c3ccc(O)cc3)nc3ccccc32)cc1`, the TGI in the test with A498 renal, in the test with ACHN renal, in the test on COLO 205 colon, in the test on HOP-62 NSCLC, in the test on LOX IMVI melanoma and in the test on OVCAR-5 ovarian was greater than 100 µM in each case. Moreover, the TGI in the test on SF-295 CNS, in the test on SK-MEL-2 melanoma, with SK-OV-3 ovarian and in the test on SN12C renal was greater than 100 µM throughout.

For `O=C(NC1C=Nc2ccccc2NC1=O)c1ccccc1Cl` (stereo not given), the TGI was greater than 100 µM in the test on A498 renal; greater than 100 µM in the test with ACHN renal; 52.7 µM in the test on COLO 205 colon; greater than 100 µM in the test with HOP-62 NSCLC; greater than 100 µM in the test with LOX IMVI melanoma; greater than 100 µM with OVCAR-5 ovarian. For the same compound, the TGI in the test with SF-295 CNS, with SK-MEL-2 melanoma, with SK-OV-3 ovarian and in the test on SN12C renal was greater than 100 µM each time.

Regarding `CC#Cc1c(C#CC)c(OC)c2c(c1OC)C(=O)c1ccccc1C2=O`, the TGI is greater than 100 µM in the test with A498 renal; 34.8 µM with ACHN renal; greater than 100 µM in the test with COLO 205 colon; 45.4 µM with HOP-62 NSCLC; greater than 100 µM with LOX IMVI melanoma; greater than 100 µM in the test on OVCAR-5 ovarian. Also, the TGI with SF-295 CNS was 39.1 µM; in the test with SK-MEL-2 melanoma, greater than 100 µM; in the test with SK-OV-3 ovarian, greater than 100 µM; in the test on SN12C renal, greater than 100 µM.

`CC(C)=CCc1cc(C2COc3cc4c(c(O)c3C2=O)C=CC(C)(C)O4)c(O)cc1O` (stereo not given): the TGI in the test on A498 renal worked out at 33.2 µM; in the test on ACHN renal it was 32.4 µM; with COLO 205 colon it was 49.9 µM; with HOP-62 NSCLC, 32.3 µM; in the test with LOX IMVI melanoma, 43.4 µM; in the test on OVCAR-5 ovarian, 29.7 µM. Moreover, the TGI in the test on SF-295 CNS was 43.5 µM; with SK-MEL-2 melanoma it was 31.7 µM; in the test with SK-OV-3 ovarian, 29.8 µM; in the test with SN12C renal it was 26.3 µM.

Consider `Nc1nc(Cl)nc2c1ncn2[C@@H]1O[C@H](COS(N)(=O)=O)[C@@H](O)[C@H]1O`, for which the GI50 in the test on A498 renal was 0.00943 µM and 0.0148 µM; in the test on ACHN renal, 0.0257 µM and 0.0252 µM; in the test with COLO 205 colon it was 0.0202 µM and 0.0239 µM; in the test on HOP-62 NSCLC, 0.00684 µM; in the test on LOX IMVI melanoma it was 0.0181 µM and 0.0231 µM; in the test on OVCAR-5 ovarian, 0.00425 µM. Further, the GI50 was 0.0244 µM and 0.0324 µM in the test on SF-295 CNS; 0.0185 µM and 0.0195 µM in the test on SK-MEL-2 melanoma; 0.0248 µM and 0.026 µM in the test on SK-OV-3 ovarian; 0.00377 µM in the test with SN12C renal. The TGI in the test with A498 renal was 0.0254 µM and 0.0309 µM; in the test with ACHN renal, 0.0778 µM and 0.0657 µM; in the test with COLO 205 colon, 0.0489 µM and 0.0543 µM; in the test with HOP-62 NSCLC it was 0.0333 µM; in the test on LOX IMVI melanoma, 0.0356 µM and 0.0552 µM; with OVCAR-5 ovarian, 0.0401 µM and 0.0385 µM. Further, the TGI in the test with SF-295 CNS was 0.0751 µM and 0.143 µM; in the test with SK-MEL-2 melanoma, 0.0437 µM and 0.0429 µM; in the test on SK-OV-3 ovarian, 0.0739 µM and 0.0666 µM; in the test on SN12C renal it was 0.0417 µM and 0.0868 µM.

As to `COc1ccc(OC)c(/C=N/N=C2\C(=O)Nc3c(Cl)cc(Cl)cc32)c1`, the TGI with A498 renal was greater than 100 µM; with ACHN renal it was greater than 100 µM; with COLO 205 colon it was greater than 100 µM; in the test with HOP-62 NSCLC it was 79.4 µM; in the test with LOX IMVI melanoma, greater than 100 µM; in the test with OVCAR-5 ovarian it was greater than 100 µM. For the same compound, the TGI with SF-295 CNS is greater than 100 µM; with SK-MEL-2 melanoma it was 68.8 µM; in the test on SK-OV-3 ovarian it was greater than 100 µM; in the test with SN12C renal it was greater than 100 µM.

Take `CC(C)c1cccc(C(C)C)c1NC(=O)C(=O)C1SC(=S)NC1=O` (stereo not given): the TGI in the test on A498 renal, in the test on ACHN renal, in the test with COLO 205 colon, in the test with HOP-62 NSCLC, with LOX IMVI melanoma and in the test with OVCAR-5 ovarian was greater than 100 µM each time. Also, the TGI in the test with SF-295 CNS, in the test with SK-MEL-2 melanoma, in the test on SK-OV-3 ovarian and in the test on SN12C renal was greater than 100 µM in each case.

Regarding `COc1cc2c(cc1OCCCCCn1c3ccccc3c3ccccc31)N=C[C@@H]1CCCN1C2=O`, the GI50 with A498 renal was 1.77 µM; with ACHN renal, 1.74 µM; with COLO 205 colon it was 2.11 µM; in the test with HOP-62 NSCLC it was 1.8 µM; with LOX IMVI melanoma, 2.01 µM; in the test on OVCAR-5 ovarian, 2.42 µM. Besides, the GI50 with SF-295 CNS is 2.15 µM; in the test with SK-MEL-2 melanoma, 1.67 µM; in the test with SK-OV-3 ovarian, 4.57 µM; in the test on SN12C renal, 1.94 µM. The TGI in the test on A498 renal came to 3.69 µM; in the test on ACHN renal, 3.34 µM; in the test on COLO 205 colon it was 4.57 µM; in the test with HOP-62 NSCLC, 3.91 µM; in the test with LOX IMVI melanoma, 4.88 µM; with OVCAR-5 ovarian, 5.49 µM. The TGI with SF-295 CNS was 6.55 µM; in the test on SK-MEL-2 melanoma, 3.24 µM; in the test with SK-OV-3 ovarian, 16.8 µM; with SN12C renal, 4.16 µM.

Regarding `O=C(NN1C(=O)CSC12CCC(c1ccccc1)CC2)c1[nH]c2ccc(F)cc2c1-c1ccccc1` (stereo not given), the GI50 in the test with A498 renal is 18.5 µM; in the test with ACHN renal it was 17.2 µM; in the test on COLO 205 colon, 21.2 µM; in the test on HOP-62 NSCLC it was 18.3 µM; in the test with LOX IMVI melanoma it was 17.1 µM; in the test on OVCAR-5 ovarian, 18.5 µM. Besides, the GI50 in the test on SF-295 CNS is 22 µM; with SK-MEL-2 melanoma, 17.6 µM; with SK-OV-3 ovarian, 37.7 µM; with SN12C renal, 17.6 µM. For the same compound, the TGI with A498 renal is 34.9 µM; in the test with ACHN renal, 31.8 µM; in the test on COLO 205 colon it was 68.3 µM; in the test on HOP-62 NSCLC, 34.7 µM; with LOX IMVI melanoma, 30.8 µM; in the test on OVCAR-5 ovarian it was 34.7 µM. Moreover, the TGI was 41.6 µM in the test on SF-295 CNS, 33.2 µM with SK-MEL-2 melanoma, greater than 100 µM with SK-OV-3 ovarian and 31.8 µM in the test on SN12C renal.
